Data published in patent US8841312B2, “Fused pyridine, pyrimidine and triazine compounds as cell cycle inhibitors” (Amgen Inc., priority 2007, dated 2014).

Assays:
Cdk6/CyclinD3 = Cdk6/CyclinD3 (Homo sapiens (Human), UniProt Q00534); experiment: Cdk6 kinase inhibition assay with recombinant Cdk6/CyclinD3, Rb substrate, [33P]-ATP filter plate; assay type: biochemical; conditions: 25 μM ATP, read-out: Cdk 6 IC50
Summary of the method: (§1)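 Recombinant Cdk4/CyclinD1 or Cdk6/CyclinD3 phosphorylated Rb protein with [33P]-ATP for 1 h at room temperature. Protein was TCA-precipitated on filter plates and bound radioactivity counted. IC50 by nonlinear regression.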

Cdk4/CyclinD1 = Cdk4/CyclinD1 (Homo sapiens (Human), UniProt P11802); experiment: Cdk4 kinase inhibition assay with recombinant Cdk4/CyclinD1, Rb substrate, [33P]-ATP filter plate; assay type: biochemical; conditions: 25 μM ATP, read-out: Cdk 4 IC50
Sequence of Cdk4/CyclinD1 (P11802 whole entry): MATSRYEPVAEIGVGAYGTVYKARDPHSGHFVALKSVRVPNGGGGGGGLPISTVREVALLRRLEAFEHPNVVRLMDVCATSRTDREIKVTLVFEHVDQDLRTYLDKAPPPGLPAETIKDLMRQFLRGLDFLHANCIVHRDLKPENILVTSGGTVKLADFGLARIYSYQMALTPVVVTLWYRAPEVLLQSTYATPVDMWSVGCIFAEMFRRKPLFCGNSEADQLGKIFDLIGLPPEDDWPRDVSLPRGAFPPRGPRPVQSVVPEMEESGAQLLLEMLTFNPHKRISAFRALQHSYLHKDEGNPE
Sequence of Cdk4/CyclinD1 (P24385 whole entry partner): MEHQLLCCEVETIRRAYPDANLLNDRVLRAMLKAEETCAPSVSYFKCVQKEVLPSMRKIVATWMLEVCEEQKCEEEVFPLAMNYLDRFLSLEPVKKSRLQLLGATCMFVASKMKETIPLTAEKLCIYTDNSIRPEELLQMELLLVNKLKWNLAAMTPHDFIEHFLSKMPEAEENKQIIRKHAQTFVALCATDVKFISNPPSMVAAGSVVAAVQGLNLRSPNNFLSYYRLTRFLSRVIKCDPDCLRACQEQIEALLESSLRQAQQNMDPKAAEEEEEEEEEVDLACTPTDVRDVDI
Summary of the method: as §1

Sequence of Cdk6/CyclinD3 (Q00534 whole entry): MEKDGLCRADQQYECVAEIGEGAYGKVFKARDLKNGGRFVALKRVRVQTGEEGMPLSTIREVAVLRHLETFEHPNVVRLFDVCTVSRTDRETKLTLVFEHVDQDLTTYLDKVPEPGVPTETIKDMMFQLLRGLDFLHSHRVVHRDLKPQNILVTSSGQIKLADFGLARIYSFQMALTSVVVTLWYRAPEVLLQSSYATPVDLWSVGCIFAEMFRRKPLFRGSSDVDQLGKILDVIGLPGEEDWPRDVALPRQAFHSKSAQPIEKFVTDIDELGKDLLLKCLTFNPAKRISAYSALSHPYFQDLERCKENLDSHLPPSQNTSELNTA
Sequence of Cdk6/CyclinD3 (P30281 whole entry partner): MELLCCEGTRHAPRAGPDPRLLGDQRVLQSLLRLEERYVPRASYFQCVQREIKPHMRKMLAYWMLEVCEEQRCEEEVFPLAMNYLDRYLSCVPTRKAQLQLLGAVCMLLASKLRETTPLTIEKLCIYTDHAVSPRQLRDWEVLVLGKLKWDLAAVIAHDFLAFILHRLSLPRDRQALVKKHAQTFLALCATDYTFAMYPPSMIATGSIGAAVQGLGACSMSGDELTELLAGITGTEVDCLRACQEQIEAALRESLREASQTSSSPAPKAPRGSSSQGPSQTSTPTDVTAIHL

Structure (SMILES) | IC50 (Cdk6/CyclinD3) [nM] | IC50 (Cdk4/CyclinD1) [nM]
O[C@H]1CCN(c2ccc(Nc3ncc4c5ccccc5n(C5CCCC5)c4n3)nc2)C1 [Example 305] | 111 | 149
CC1CN(c2ccc(Nc3ncc4c5ccccc5n(C5CCCC5)c4n3)nn2)CC(C)N1 (stereo not drawn) [Example 306] | 39 | 13
O[C@H]1CCN(c2ccc(Nc3ncc4c5ccnc(F)c5n(C5CCCC5)c4n3)nn2)C1 [Example 311] | 24 | 8.6
COCCn1c2cnccc2c2cnc(Nc3ccc(N4CCNCC4)cn3)nc21 [Example 312] | 790 | 370
COCCn1c2cnccc2c2cnc(Nc3ccc(N4CCNCC4)nn3)nc21 [Example 313] | 400 | 340
COCCn1c2cnccc2c2cnc(Nc3ccc(N4CCC(N(C)C)CC4)cn3)nc21 [Example 314] | 1500 | 380
CC[C@@H](C)n1c2cnccc2c2cnc(Nc3ccc(N4CCC(N(C)C)CC4)nn3)nc21 [Example 316] | 59 | 36
CC[C@@H](C)n1c2cnccc2c2cnc(Nc3ccc(N4CCN[C@@H](C)C4)nn3)nc21 [Example 317] | 21 | 12
CC[C@@H](C)n1c2cnccc2c2cnc(Nc3ccc(N4CCC(NC)CC4)nn3)nc21 [Example 318] | 27 | 2.9
CC[C@@H](C)n1c2cnccc2c2cnc(Nc3ccc(N4CC[C@@H](O)C4)nn3)nc21 [Example 319] | 49 | 22
CC[C@@H](C)n1c2cnccc2c2cnc(Nc3ccc(N4CC[C@@H](O)C4)cn3)nc21 [Example 322] | 50 | 15
CC[C@@H](C)n1c2cnccc2c2cnc(Nc3ccc(N4CCNCC4)nn3)nc21 [Example 323] | 23 | 9.6
CC[C@@H](C)n1c2cnccc2c2cnc(Nc3ccc(N4CCNC(C)(C)C4)nn3)nc21 [Example 324] | 20 | 11
CC[C@@H](C)n1c2cnccc2c2cnc(Nc3ccc(N4CCC(NC)CC4)cn3)nc21 [Example 325] | 42 | 11
CN(C)C1CCN(c2ccc(Nc3ncc4c5ccncc5n(C5CCC5)c4n3)nc2)CC1 [Example 341] | 16 | 21
CC[C@@H](C)n1c2cnccc2c2cnc(Nc3ccc(N4CCNC(C)(C)C4)cn3)nc21 [Example 342] | 77 | 87
CC1(C)CN(c2ccc(Nc3ncc4c5ccncc5n(C5CCC5)c4n3)nc2)CCN1 [Example 343] | 28 | 44
C[C@H]1CN(c2ccc(Nc3ncc4c5ccncc5n(C5CCC5)c4n3)nc2)CCN1 [Example 344] | 10 | 16
CNC1CCN(c2ccc(Nc3ncc4c5ccncc5n(C5CCC5)c4n3)nc2)CC1 [Example 345] | 15 | 21
c1cc2c3cnc(Nc4ccc(N5CCNCC5)nn4)nc3n(C3CCC3)c2cn1 [Example 346] | 16 | 54
CN(C)C1CCN(c2ccc(Nc3ncc4c5ccncc5n(C5CCC5)c4n3)nn2)CC1 [Example 347] | 27 | 27
CN(C)C1CCN(c2ccc(Nc3ncc4c5ccncc5n([C@@H]5CCNC5)c4n3)nc2)CC1 [Example 349] | 340 | 144

Structure (SMILES) | IC50 (Cdk6/CyclinD3) [nM] | IC50 (Cdk4/CyclinD1) [nM]
CN(C)C1CCN(c2ccc(Nc3ncc4c5ccncc5n(CCCO)c4n3)nc2)CC1 [Example 350] | 102 | 74
C[C@H]1CN(c2ccc(Nc3ncc4c5ccncc5n(CCCO)c4n3)nc2)CCN1 [Example 351] | 176 | 80
OCCCn1c2cnccc2c2cnc(Nc3ccc(N4CCNCC4)nn3)nc21 [Example 352] | 53 | 146
OCCCn1c2cnccc2c2cnc(Nc3ccc(N4CC[C@@H](O)C4)nn3)nc21 [Example 353] | 103 | 90
CN(C)C1CCN(c2ccc(Nc3ncc4c5ccncc5n([C@H]5CCC[C@H]5O)c4n3)nc2)CC1 [Example 354] | 830 | 580
CN(C)C1CCN(c2ccc(Nc3ncc4c5ccncc5n([C@H]5CCC[C@H]5O)c4n3)nn2)CC1 [Example 355] | 275 | 177
C[C@@H](O)Cn1c2cnccc2c2cnc(Nc3ccc(N4CCNCC4)cn3)nc21 [Example 356] | 370 | 360
C[C@@H](O)Cn1c2cnccc2c2cnc(Nc3ccc(N4CCC(N(C)C)CC4)cn3)nc21 [Example 357] | 314 | 294
C[C@@H](O)Cn1c2cnccc2c2cnc(Nc3ccc(N4CC[C@@H](O)C4)cn3)nc21 [Example 358] | 590 | 470
O[C@@H]1CCC[C@@H]1n1c2cnccc2c2cnc(Nc3ccc(N4CCNCC4)cn3)nc21 [Example 361] | 58 | 44
C[C@@H](CO)n1c2cnccc2c2cnc(Nc3ccc(N4CCNCC4)cn3)nc21 [Example 369] | 29 | 45
CNC1CCN(c2ccc(Nc3ncc4c5ccncc5n(C5CCC5)c4n3)nn2)CC1 [Example 434] | 19 | 13
O[C@@H]1CCN(c2ccc(Nc3ncc4c5ccncc5n(C5CCC5)c4n3)nc2)C1 [Example 435] | 92 | 42
c1cc2c3cnc(Nc4ccc(N5CCC(N6CCCC6)CC5)nn4)nc3n(C3CCCC3)c2cn1 [Example 437] | 30 | 23
CNCCN(C)C1CCN(c2ccc(Nc3ncc4c5ccncc5n(C5CCCC5)c4n3)nn2)CC1 [Example 443] | 16 | 4.8
c1cc2c3cnc(Nc4ccc(N5CCC(N6CCOCC6)CC5)nn4)nc3n(C3CCCC3)c2cn1 [Example 447] | 26 | 2.8
OC1CN(C2CCN(c3ccc(Nc4ncc5c6ccncc6n(C6CCCC6)c5n4)nn3)CC2)C1 [Example 448] | 22 | 10
O[C@@H]1CCN(C2CCN(c3ccc(Nc4ncc5c6ccncc6n(C6CCCC6)c5n4)nn3)CC2)C1 [Example 449] | 36 | 12
O[C@H]1CCN(C2CCN(c3ccc(Nc4ncc5c6ccncc6n(C6CCCC6)c5n4)nn3)CC2)C1 [Example 450] | 16 | 10
O[C@@H]1CCCN(C2CCN(c3ccc(Nc4ncc5c6ccncc6n(C6CCCC6)c5n4)nn3)CC2)C1 [Example 451] | 18 | 13
O[C@H]1CCCN(C2CCN(c3ccc(Nc4ncc5c6ccncc6n(C6CCCC6)c5n4)nn3)CC2)C1 [Example 452] | 30 | 7
FC(F)(F)CNC1CCN(c2ccc(Nc3ncc4c5ccncc5n(C5CCCC5)c4n3)nn2)CC1 [Example 456] | 380 | 110

Continued, values first:

IC50 (Cdk6/CyclinD3) [nM] | IC50 (Cdk4/CyclinD1) [nM] | Structure (SMILES)
8.8 | 11 | c1ccc2c(c1)c1cnc(Nc3ccc(N4CCNCC4)nn3)nc1n2C1CCCC1 [Example 307]
8 | 11 | NC1CCN(c2ccc(Nc3ncc4c5ccccc5n(C5CCCC5)c4n3)nn2)CC1 [Example 308]
12 | 11 | CN(C)C1CCN(c2ccc(Nc3ncc4c5ccccc5n(C5CCCC5)c4n3)nc2)CC1 [Example 309]
13 | 5 | CNC1CCN(c2ccc(Nc3ncc4c5ccnc(F)c5n(C5CCCC5)c4n3)nc2)CC1 [Example 310]
11 | 3.6 | CC[C@@H](C)n1c2cnccc2c2cnc(Nc3ccc(N4CCNCC4)cn3)nc21 [Example 320]
11 | 7 | CC[C@@H](C)n1c2cnccc2c2cnc(Nc3ccc(N4CCN[C@@H](C)C4)cn3)nc21 [Example 321]
12 | 17 | CC1(C)CN(c2ccc(Nc3ncc4c5ccncc5n(C5CCC5)c4n3)nn2)CCN1 [Example 348]
5.1 | 13 | C[C@H](CO)NC1CCN(c2ccc(Nc3ncc4c5ccncc5n(C5CCCC5)c4n3)nc2)CC1 [Example 436, (2R)-2-((1-(6-((9-cyclopentyl-9H-pyrido[4′,3′:4,5]pyrrolo[2,3-d]pyrimidin-2-yl)amino)-3-pyridinyl)-4-piperidinyl)amino)-1-propanol]
12 | 4.2 | OCCNC1CCN(c2ccc(Nc3ncc4c5ccncc5n(C5CCCC5)c4n3)nn2)CC1 [Example 438]
5.7 | 3.7 | C[C@H](O)CNC1CCN(c2ccc(Nc3ncc4c5ccncc5n(C5CCCC5)c4n3)nn2)CC1 [Example 439]
14 | 5.8 | CN(CCO)C1CCN(c2ccc(Nc3ncc4c5ccncc5n(C5CCCC5)c4n3)nn2)CC1 [Example 440]
3.8 | 1.7 | C[C@@H](O)CNC1CCN(c2ccc(Nc3ncc4c5ccncc5n(C5CCCC5)c4n3)nn2)CC1 [Example 441]
13 | 1.5 | C[C@@H](CO)NC1CCN(c2ccc(Nc3ncc4c5ccncc5n(C5CCCC5)c4n3)nn2)CC1 [Example 442]
11 | 1.9 | C[C@H](CO)NC1CCN(c2ccc(Nc3ncc4c5ccncc5n(C5CCCC5)c4n3)nn2)CC1 [Example 444]
6.3 | 2.2 | OCC(CO)NC1CCN(c2ccc(Nc3ncc4c5ccncc5n(C5CCCC5)c4n3)nn2)CC1 [Example 445]
4.8 | 1.3 | OC[C@H](O)CNC1CCN(c2ccc(Nc3ncc4c5ccncc5n(C5CCCC5)c4n3)nn2)CC1 [Example 446]
13 | 4.6 | OCCCNC1CCN(c2ccc(Nc3ncc4c5ccncc5n(C5CCCC5)c4n3)nn2)CC1 [Example 453]
11 | 5.2 | CCN(CCO)C1CCN(c2ccc(Nc3ncc4c5ccncc5n(C5CCCC5)c4n3)nn2)CC1 [Example 454]
9 | 7 | OC1CCN(C2CCN(c3ccc(Nc4ncc5c6ccncc6n(C6CCCC6)c5n4)nn3)CC2)CC1 [Example 455]
